Assay results published in patent US20250368620A1, “ARNT Degrading Compounds and Uses Thereof” (Celgene Corporation, priority 2024, published 2025).

Target: T1, ARNT (Homo sapiens, UniProt P27540)
T1 construct: an sgRNA targeting the C-terminus of the ARNT gene near the stop codon; endogenous in cells; host or cells: HEK293 ARNT-HiBiT knock-in, homozygous clone
Test: ARNT degradation in a HiBiT system (HEK293 ARNT-HiBiT Knock-In cell line)
Format: cell-based
Details: half-maximal degradation concentration; HEK293 ARNT-HiBiT KI cells, 4h of treatment, luminescence
Protocol: Compounds of Formula (I) were tested for ARNT degradation in a HiBiT system. A HEK293 ARNT-HiBiT Knock-In cell line was generated using CRISPR/Cas9 technology. Briefly, HEK293 cells were electroporated with the Neon system with an sgRNA targeting the C-terminus of the ARNT gene near the stop codon ([…] (SEQ ID NO: 1); chr 1: 150,812,014-150,812,034) and the HiBiT donor DNA template (80 nucleotides homology arms upstream and downstream of the insert site, with a GSGS (SEQ ID NO: 2) linker). A homozygous clone was selected after Sanger sequencing, and genetic edition was further validated using Nano-Glo HiBiT blotting system. HEK293 ARNT-HiBiT KI cells were cultured in DMEM+10% FBS at 37° C. and 5% CO2. For the assay, cells were seeded at 10,000 cells/well in white 384 plates (Corning #3570) in 22.5 μl of culture medium without phenol red. Test compounds were spotted in 384-well plates by an acoustic dispenser (10 concentrations, semi-log dilution, in 100% DMSO). Before treatment, compounds were diluted 1:100 or 1:1,000 in culture medium without phenol red, and cells were treated with 2.5 μl of diluted compounds 18h after seeding (final top concentration: 3 or 0.3 μM). After 4h of treatment, plates were equilibrated at room temperature for 30 min, and 25 μl of NANO-GLO® HiBiT Lytic reagent were added per well. Luminescence was measured on a plate reader 15 min after incubation with the detection reagent. Data were analyzed using the Genedata Screener Software version 19, and normalization was performed using the DMSO treated wells as Neutral Control and medium only (without cells) wells as Scale Reference. For curve fitting, the smart fit condensing method with a 4-parameters Hill model was used and the half-maximal degradation concentration (DC50) was calculated.

T1 sequence (P27540 whole entry): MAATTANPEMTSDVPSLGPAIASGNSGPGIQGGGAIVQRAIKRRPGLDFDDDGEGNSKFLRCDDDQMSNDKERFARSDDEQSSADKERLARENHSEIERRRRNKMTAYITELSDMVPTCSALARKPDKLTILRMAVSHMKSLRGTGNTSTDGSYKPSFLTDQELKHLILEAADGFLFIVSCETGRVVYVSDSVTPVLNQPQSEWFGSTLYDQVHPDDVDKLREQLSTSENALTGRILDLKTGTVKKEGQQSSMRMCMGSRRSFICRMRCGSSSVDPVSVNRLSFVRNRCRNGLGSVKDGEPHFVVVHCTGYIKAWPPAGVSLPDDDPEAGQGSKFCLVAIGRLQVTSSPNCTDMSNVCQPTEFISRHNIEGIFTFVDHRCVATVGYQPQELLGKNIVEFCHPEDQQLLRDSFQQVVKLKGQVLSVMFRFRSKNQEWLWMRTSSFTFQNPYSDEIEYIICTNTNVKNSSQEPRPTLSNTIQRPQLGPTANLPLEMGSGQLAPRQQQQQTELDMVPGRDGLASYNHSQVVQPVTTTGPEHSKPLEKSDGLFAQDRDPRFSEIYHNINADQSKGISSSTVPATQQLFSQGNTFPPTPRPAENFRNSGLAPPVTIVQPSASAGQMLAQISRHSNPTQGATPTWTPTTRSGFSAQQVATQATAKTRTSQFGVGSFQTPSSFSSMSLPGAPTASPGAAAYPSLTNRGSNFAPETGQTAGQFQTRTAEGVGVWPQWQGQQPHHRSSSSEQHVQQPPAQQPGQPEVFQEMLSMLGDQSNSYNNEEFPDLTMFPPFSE

| SMILES | DC50 |
| --- | --- |
| C[C@@H]1c2cc(C(=O)N3Cc4c(ccc(Cl)c4F)[C@@H]3CN3CCC3)ccc2C(=O)N1[C@H]1CCC(=O)NC1=O [Compound 17, (S)-3-((R)-5-((R)-1-(azetidin-1-ylmethyl)-5-chloro-4-fluoroisoindoline-2-carbonyl)-3-methyl-1-oxoisoindolin-2-yl)piperidine-2,6-dione] | 1.2 nM |
| COc1c(C(=O)N2Cc3cc(C(F)(F)F)ccc3[C@@H]2C)ccc2c1[C@@H](C)N([C@H]1CCC(=O)NC1=O)C2=O [Compound 35, (S)-3-((R)-4-methoxy-3-methyl-5-((S)-1-methyl-5-(trifluoromethyl)isoindoline-2-carbonyl)-1-oxoisoindolin-2-yl)piperidine-2,6-dione] | 3.3 nM |
| COc1ccc2c(c1)CN(C(=O)c1ccc3c(c1)[C@@H](C)N([C@H]1CCC(=O)NC1=O)C3=O)[C@H]2CN(C)C [Compound 28, (S)-3-((R)-5-((R)-1-((dimethylamino)methyl)-5-methoxyisoindoline-2-carbonyl)-3-methyl-1-oxoisoindolin-2-yl)piperidine-2,6-dione] | 1.7 nM |
| C[C@@H]1c2cc(C(=O)N3Cc4cc(C(F)(F)F)ccc4[C@@H]3C)ccc2C(=O)N1[C@@H]1CCC(=O)NC1=O [Compound 37, (R)-3-((R)-3-methyl-5-((S)-1-methyl-5-(trifluoromethyl)isoindoline-2-carbonyl)-1-oxoisoindolin-2-yl)piperidine-2,6-dione] | 6.5 nM |
| C[C@@H]1c2cc(C(=O)N3Cc4cc(C(F)(F)F)ccc4[C@@H]3CN(C)C)ccc2C(=O)N1[C@H]1CCC(=O)NC1=O [Compound 8, (S)-3-((R)-5-((R)-1-((dimethylamino)methyl)-5-(trifluoromethyl)isoindoline-2-carbonyl)-3-methyl-1-oxoisoindolin-2-yl)piperidine-2,6-dione] | 0.61 nM |
| C[C@@H]1c2cc(C(=O)N3Cc4c(ccc(C(F)(F)F)c4Cl)[C@@H]3C)ccc2C(=O)N1[C@H]1CCC(=O)NC1=O [Compound 34, (S)-3-((R)-5-((S)-4-chloro-1-methyl-5-(trifluoromethyl)isoindoline-2-carbonyl)-3-methyl-1-oxoisoindolin-2-yl)piperidine-2,6-dione] | 3.1 nM |

Further compounds by falling DC50, results first:

| DC50 | SMILES |
| --- | --- |
| 2.2 nM | C[C@@H]1c2cc(C(=O)N3Cc4cc(C(F)(F)F)ccc4[C@@H]3C)ccc2C(=O)N1[C@H]1CCC(=O)NC1=O [Compound 31, (S)-3-((R)-3-methyl-5-((S)-1-methyl-5-(trifluoromethyl)isoindoline-2-carbonyl)-1-oxoisoindolin-2-yl)piperidine-2,6-dione] |
| 1.7 nM | Cc1ccc2c(c1F)CN(C(=O)c1ccc3c(c1)[C@@H](C)N([C@H]1CCC(=O)NC1=O)C3=O)[C@H]2C [Compound 26, (S)-3-((R)-5-((S)-4-fluoro-1,5-dimethylisoindoline-2-carbonyl)-3-methyl-1-oxoisoindolin-2-yl)piperidine-2,6-dione] |
| 1.3 nM | C[C@@H]1c2cc(C(=O)N3Cc4c(ccc(Br)c4Cl)[C@@H]3C)ccc2C(=O)N1[C@H]1CCC(=O)NC1=O [Compound 24, (S)-3-((R)-5-((S)-5-bromo-4-chloro-1-methylisoindoline-2-carbonyl)-3-methyl-1-oxoisoindolin-2-yl)piperidine-2,6-dione] |
| 1 nM | C[C@H]1c2ccc(C(F)(F)F)cc2CN1C(=O)c1ccc2c3c(cccc13)N(C1CCC(=O)NC1=O)C2=O (stereo partly drawn) [Compound 16, 3-(5-((S)-1-methyl-5-(trifluoromethyl)isoindoline-2-carbonyl)-2-oxobenzo[cd]indol-1(2H)-yl)piperidine-2,6-dione] |
| 0.78 nM | C[C@@H]1c2cc(C(=O)N3Cc4cc(F)ccc4[C@@H]3C)ccc2C(=O)N1[C@H]1CCC(=O)NC1=O [Compound 13, (S)-3-((R)-5-((S)-5-fluoro-1-methylisoindoline-2-carbonyl)-3-methyl-1-oxoisoindolin-2-yl)piperidine-2,6-dione] |
| 0.73 nM | C[C@@H]1c2cc(C(=O)N3Cc4c(ccc(Cl)c4F)[C@@H]3CN3CCC(F)CC3)ccc2C(=O)N1[C@H]1CCC(=O)NC1=O [Compound 12, (S)-3-((R)-5-((R)-5-chloro-4-fluoro-1-((4-fluoropiperidin-1-yl)methyl)isoindoline-2-carbonyl)-3-methyl-1-oxoisoindolin-2-yl)piperidine-2,6-dione] |
| 0.66 nM | C[C@@H]1c2cc(C(=O)N3Cc4cc(Br)ccc4[C@@H]3C)ccc2C(=O)N1[C@H]1CCC(=O)NC1=O [Compound 9, (S)-3-((R)-5-((S)-5-bromo-1-methylisoindoline-2-carbonyl)-3-methyl-1-oxoisoindolin-2-yl)piperidine-2,6-dione] |
